Columns and labels:
hTG6 = molecular target: T1, hTG6 (Homo sapiens, UniProt O95932); assay: Colorimetric transamidase activity assay, isozyme selectivity; format: biochemical; details: normalized [I]/α
T1 sequence (O95932 1-706): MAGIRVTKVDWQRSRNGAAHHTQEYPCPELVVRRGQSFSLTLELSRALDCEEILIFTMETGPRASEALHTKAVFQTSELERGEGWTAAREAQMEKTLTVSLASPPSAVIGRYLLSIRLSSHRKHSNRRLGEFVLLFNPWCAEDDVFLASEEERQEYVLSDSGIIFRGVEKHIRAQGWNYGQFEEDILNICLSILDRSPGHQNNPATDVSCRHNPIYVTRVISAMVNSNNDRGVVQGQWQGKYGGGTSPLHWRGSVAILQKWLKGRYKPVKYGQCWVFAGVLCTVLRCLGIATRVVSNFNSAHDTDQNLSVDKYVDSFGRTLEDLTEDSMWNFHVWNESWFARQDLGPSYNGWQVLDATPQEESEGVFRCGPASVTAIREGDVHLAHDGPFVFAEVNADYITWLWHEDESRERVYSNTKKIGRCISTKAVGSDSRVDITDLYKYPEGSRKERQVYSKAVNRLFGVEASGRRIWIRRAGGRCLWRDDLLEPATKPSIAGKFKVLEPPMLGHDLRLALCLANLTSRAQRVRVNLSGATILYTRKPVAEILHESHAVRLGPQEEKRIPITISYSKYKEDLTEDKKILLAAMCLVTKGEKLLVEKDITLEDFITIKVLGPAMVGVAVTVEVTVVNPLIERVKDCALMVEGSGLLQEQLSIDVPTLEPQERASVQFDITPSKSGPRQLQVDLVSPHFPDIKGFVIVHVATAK
Description: (§1) Colorimetric transamidase activity assay. The activities of hTG1, hTG2 and hTG6 were measured via a colorimetric assay using the chromogenic substrate Cbz-Glu(γ-p-nitrophenyl ester)Gly (AL5), as described (Leblanc, A. et al., “Kinetic studies of guinea pig liver transglutaminase reveal a general-base-catalyzed deacylation mechanism.” Biochemistry 2001, 40 (28), 8335-8342). Assays were conducted at 25° C. in 50 mM MOPS buffer (pH 6.95) containing 7.5 mM CaCl2. […] Stock solutions of the inhibitors were made in water ranging in concentration from 100-500 μM. The reaction was initiated with the addition of enzyme, 0.10 μM hTG1, 0.25 μM hTG2 (4.6 mU/mL) or 0.32 μM hTG6. Formation of hydrolysis product, p-nitrophenolate (pNP), was monitored at 405 nm in a polystyrene 96-well microplate using a BioTek Synergy 4 plate reader. The observed first-order rate constants of inactivation (kobs) were determined via non-linear regression fit to a mono-exponential model (Eqn 1) of absorbance versus time curves. These rate constants (kobs) were in turn fit to a saturation kinetics model (Eqn 2), by non-linear regression, providing the kinetic parameters kinact and KI, as previously described by Stone and Hofsteenge (Stone, S. R. and Hofsteenge, J., “Specificity of activated human protein C.” Biochem. J. 1985, 230 (2), 497-502). […] Experiments were completed in triplicate at minimum.

hTG1 = molecular target: T2, hTG1 (Homo sapiens, UniProt P22735); assay: as above; format: biochemical; details: normalized [I]/α
T2 sequence (P22735 1-817): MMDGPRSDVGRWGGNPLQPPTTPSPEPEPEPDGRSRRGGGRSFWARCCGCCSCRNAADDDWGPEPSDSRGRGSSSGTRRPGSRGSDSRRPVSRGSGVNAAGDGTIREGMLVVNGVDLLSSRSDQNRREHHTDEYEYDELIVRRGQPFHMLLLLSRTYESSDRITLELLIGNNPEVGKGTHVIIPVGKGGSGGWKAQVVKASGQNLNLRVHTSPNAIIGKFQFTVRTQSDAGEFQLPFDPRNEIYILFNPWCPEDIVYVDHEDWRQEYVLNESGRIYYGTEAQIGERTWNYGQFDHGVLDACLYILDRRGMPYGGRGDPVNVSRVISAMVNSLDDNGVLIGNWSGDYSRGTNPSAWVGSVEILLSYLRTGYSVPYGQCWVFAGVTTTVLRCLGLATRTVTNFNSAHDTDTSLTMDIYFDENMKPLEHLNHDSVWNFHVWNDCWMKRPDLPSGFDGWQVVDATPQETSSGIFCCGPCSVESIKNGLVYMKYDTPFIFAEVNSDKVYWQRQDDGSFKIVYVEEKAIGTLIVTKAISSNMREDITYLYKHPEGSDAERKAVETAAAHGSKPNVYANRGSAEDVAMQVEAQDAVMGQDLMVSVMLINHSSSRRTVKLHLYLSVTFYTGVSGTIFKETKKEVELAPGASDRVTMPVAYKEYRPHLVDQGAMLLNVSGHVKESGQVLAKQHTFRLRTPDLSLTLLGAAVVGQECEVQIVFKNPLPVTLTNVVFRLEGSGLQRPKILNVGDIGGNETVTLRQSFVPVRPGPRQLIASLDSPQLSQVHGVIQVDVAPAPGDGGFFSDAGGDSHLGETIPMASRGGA
Description: as §1

Row | Structure (SMILES) | inhibition of TG6 (hTG6) | inhibition of TG1 (hTG1)
1 | C=CC(=O)NCCCC[C@H](NC(=O)Cc1ccccc1F)C(=O)N1CCN(C(=O)c2cccc3ccccc23)CC1 [Inhibitor 72, (S)-N-(6-(4-(1-naphthoyl)piperazin-1-yl)-5-(2-(2-fluorophenyl)acetamido)-6-oxohexyl)acrylamide] | none of these inhibitors showed any detectable inhibition | none of these inhibitors showed any detectable inhibition
2 | C=CC(=O)NCCCC[C@H](NC(=O)OCc1ccccc1)C(=O)N1CCN(C(=O)c2cccc3ccccc23)CC1 [AA9, reference compound] | none of these inhibitors showed any detectable inhibition | none of these inhibitors showed any detectable inhibition
3 | C=CC(=O)NCCCC[C@H](NC(=O)Cc1ccccc1C)C(=O)N1CCN(C(=O)c2cccc3ccccc23)CC1 [Inhibitor 74, (S)-N-(6-(4-(1-naphthoyl)piperazin-1-yl)-5-(2-(2-methylphenyl)acetamido)-6-oxohexyl)acrylamide] | none of these inhibitors showed any detectable inhibition | none of these inhibitors showed any detectable inhibition
